# Test results: patent publication US9320271B2, “Microbial composition” (Rohm and Haas Company, priority 2011, dated 2016)
# Several values for one entry are separate records, joined by “and”; a condition that tells them apart may be missing. Identical values can stand only once.
# Experiments:
# [1] = tested on: Escherichia coli (E. coli—ATCC #10536); assay: Synergy test: high resolution MBC microtiter plate assay, phosphate buffer containing 35% dipropylene glycol, 15 seconds contact; assay type: cell-based; details: E. coli 10536
# Text: The concentrations and ratios may also vary under different test conditions or with different test methods.
# One measure of synergy is the industrially accepted method described by Kull, F. C.; Eisman, P. C.; Sylwestrowicz, H. D, and Mayer, R. L., in Applied Microbiology 9:538-541 (1961), using the ratio determined by the formula: […]=Synergy Index (“SI”) wherein; QA=concentration of compound A (first component) in percent, acting alone, which produced an end point (MBC of Compound A). Qa=concentration of compound A in percent, in the mixture, which produced an end point. QB=concentration of compound B (second component) in percent, acting alone, which, produced an end point (MBC of Compound B). Qb=concentration of compound B in percent, in the mixture, which produced an end point.
# When the sum of Qa/QA and Qb/QB is greater than one, antagonism is indicated. […] The lower the SI, the greater is the synergy shown by that particular mixture. The minimum biocidal concentration (MBC) of a microbicide is the lowest concentration tested under a specific set of conditions that provides complete kill of the tested microorganisms.
# Synergy tests were conducted using standard microliter plate assays with phosphate buffer containing 35% dipropylene glycol (DPG). In this method, a wide range of combinations of chemicals was tested by conducting high resolution MBC assays of Component (A) in the presence of various concentrations of Component (B). High resolution MBCs were determined by adding varying amounts of microbicide to one column of a microliter plate and doing subsequent […] dilutions using an automated liquid handling, system to obtain a series of closely spaced endpoints. The MBC plate was inoculated one column at a time with the test microorganism. An aliquot of the inoculated well was transferred at 15 seconds to a plate containing a neutralizing agent (D/E Neutralizing Broth), mixed and held for 5 minutes before being transferred to a growth plate containing trypticase soy broth (TSB). The TSB plate was incubated at 37° C. and read for the presence/absence of growth at 24 hours. The lowest level tested that provided complete kill (as evidenced by no growth in the microtitre plate) of the test organisms in 15 seconds is the minimum biocidal concentration (MBC).
# The synergy of the combinations of the present invention was determined against a bacterium, Escherichia coli (E. coli—ATCC #10536), at a concentration of approximately 1×10^8 it bacteria per mL. This microorganism is representative of natural contaminants in many consumer and industrial applications.
# [2] = tested on: Staphylococcus aureus (10788 strain); assay: 15 second contact kill test / antimicrobial efficacy of actives against S. aureus in water; assay type: cell-based
# Method: Selected materials were also tested against a representative Grant positive Staphylococcus aureus. An overnight culture of Staphylococcus aureus (10788 strain) was inoculated onto a […] Soy Agar (TSA) plate and grown for ca. 18 hrs at 37° C. The culture S. aureus was washed from the plate using sterile saline (0.85% NaCl) solution and a sterile spreader and suspended in 50 ml saline. This suspension was separated into equal volumes and centrifuged at 4000 rpm for 15 minutes. […] Here, OD620 indicates the absorbance of a sample in a cuvette of 1.0 cm path length at a wavelength of 620 nm. This bacterial stock was used for assaying against antimicrobial actives (in triplicate). The following assay describes the testing of 8 materials using 6 dilutions across half of a 96-well micro titre plate (MTP). Using this approach it is possible to assay 16 actives (without replicates) with one full dilution plate, replicating this set up in two halves of the plate columns, 1-6 and 7-12. 1M solutions of the test actives were prepared in dimethylsulphoxide (DMSO). […] Aliquots (270 μl) of the materials at 1.11 times the final concentration were dispensed into the wells of the MTP along one column (A1-H1). This MTP was labelled as the “Screening plate”. In another MTP, labelled as the “Dilution plate”, […] of D/E neutralising solution from DIFCO Composition was added to column 1. The composition of the neutralising solution was as follows: pancreatic digest of casein, 5.0 g/L; […] Dextrose, 10 g/L, sodium thioglycollate, 1.0 g/L, sodium thiosulphate, 6.0 g/L; sodium bisulphite, 2.5 g/L; […] […] From the colony number in this segment, NMBS is calculated by the formula: NMBS=log {Ncol·10^DF·100/3} Here, Ncol is the colony count, and DF is the dilution factor taken from the MTP-well corresponding to the TSA plate segment (i.e. DF may range from 1 for the quench, to 6 for the highest dilution). […] Here, OD620 indicates the absorbance of a sample in a cuvette of 1.0 cm path length at a wavelength, of 620 nm. […]
smiles,measurement,setting,value
C=C(C)C1CC=C(CO)CC1 (stereo not shown) [(4-(prop-1-en-2-yl)cyclohex-1-enyl)methanol],SI (Synergy Index),"[1]; at Qa and Qb, less than one = synergy",1.00
same,MBC of the component acting alone (QA / QB; Qa or Qb where the other component is 0),"[1]; complete kill in 15 seconds, component alone",0.5 weight % and 0.3 weight %
same,S. aureus 6538 Log Reduction,[2]; 0.2% perillyl alcohol alone,0.22
same,S. aureus 6538 Log Reduction,[2]; 0.25 Perillyl alcohol alone,0.5
